Earlier results, collected in patent US6350369B1, “Method and system for determining analyte activity” (California Institute of Technology, priority 1998, dated 2002).

Test system: cytochrome P-450
Conditions: cytochrome P-450 aniline p-hydroxylation inhibition, in words

inhibitory activity compared with QSAR prediction: higher activity than is predicted
SMILES: OCc1ccccc1 [benzyl alcohol]
